# Data: patent publication US9789111B2, “Casein kinase 1δ (CK 1δ) inhibitors” (Electrophoretics Limited, priority 2010, dated 2017)
# What was measured:
# [1] = tested on: Tau phosphorylation at key pathogenic sites in SH-SY5Y-TMHT cells; conditions: SH-SY5Y-TMHT cells exposed to kinase inhibitors; cited from earlier work
# [2] = tested on: total Tau in SH-SY5Y-TMHT cells; assay: Western Blot of total Tau; type: cell-based, human; conditions: 5 μM
# Method: (§1) SH-SY5Y-TMHT cells are kept in culture medium (DMEM medium, 10% FCS, 1% NEAA, 1% L-Glutamine, 100 μg/ml Gentamycin, 300 μg/ml Geneticin G-418) for 2 days until 80-90% confluency. Cells are then differentiated in culture medium supplemented with 10 μM retinoic acid (RA) for 7 days changing medium every 2 to 3 days. Differentiated cells are seeded onto 6-well plates and 96-well plates at a cell density of 1.25×10^6 and 8×10^5 cells per well, respectively. On day 8 post-differentiation, the test compounds, reference compounds and vehicle control were added to the culture medium. After 6 h of compound exposure one plate of cells is subjected to a MTT assay to evaluate the effect of test and reference items on cell viability. Remaining wells are washed once with cold PBS and harvested in 300 μl RIPA-Buffer [50 mM Tris pH 7.4, 1% Nonident P40, 0.25% Na-deoxy-cholate, 150 mM NaCl, 1 mM EDTA, 1 μM NaF, 1 μM Na-ortho-vanadate, 80 mM Glycerophosphate, supplemented with freshly added protease (Calbiochem) and phosphatase (Sigma) inhibitor cocktail]. The cell suspension is transferred into a 1.5 ml tube and additionally lysed by sonication on ice. An aliquot of 20 μl is taken for the determination of the protein concentration (BCA assay). Subsequently, the lysates are snap frozen and stored at −80° C. until shipment.
# (§2) Lysates of treated cells were prepared in Laemmli buffer and 10 μg loaded into each lane of a 10% Nu-PAGE gel (Invitrogen, UK). Samples were run until the coomassie blue dye fromt was within 1 cm of the bottom of the gel. The separated proteins were transferred onto nitrocellulose and blots developed using antibodies specific for total tau (Polyclonal Rabbit Anti-Human Tau, Dako, UK (cat # A0024)) and phopho-Threonine 231 (Tau (Phospho-Thr231) Antibody, Signalway Antibody, USA (cat # 11110)) respectively. In each case the bound antibody was detected using ECL Rabbit IgG, HRP-Linked (from donkey) (GE Healthcare, UK (cat # NA934))
# [3] = tested on: Tau phosphorylated at Threonine 231 in SH-SY5Y-TMHT cells; assay: Western Blot of Tau phosphorylated at Threonine 231; type: cell-based, human; conditions: 5 μM, Western Blot
# Method: as §1, §2
# [4] = tested on: SH-SY5Y-TMHT cells; assay: Cell viability, MTT assay; type: cell-based, human; conditions: 0.5 μM (tested 0.1 μM to 1 μM), 6 h of treatment
# Method: as §1
# To determine compound activity, it is necessary to control for potential cell toxicity of all molecules. Viability of cultures is determined by the MTT assay. This assay allows the measurement of the mitochondrial dehydrogenase activity which reduces yellow MTT to dark blue formazan crystals. Since this reaction is catalyzed in living cells only this assay is used for the determination of cell viability. MTT solution is added to each well in a final concentration of 0.5 mg/ml. After 2 hours, the MTT containing medium is aspired. Cells are lysed in 3% SDS and the formazan crystals are dissolved in isopropanol/HCl. Optical density is measured with a plate-reader at wavelength 570 nm. Cell survival rate is expressed as optical density (OD). Values are calculated as percent of control values.
# Cell viability was determined in differentiated SH-SY5Y-TMHT cells by the MTT assay. Test and reference compounds were applied in a concentration range from 0.05 μM to 10 μM and from 0.1 μM to 1 μM, respectively. Upon 6 h of treatment, cell viability was evaluated. […] Statistical significance is indicated by *<0.05, **<0.01, ***<0.001 as determined by One-Way ANOVA. Data are shown from two independent experiments as group mean+/−SEM (n=8). […] Statistical significance is indicated by *<0.05, **<0.01, ***<0.001 as determined by One-Way ANOVA. […] Statistical significance is indicated by *<0.05, **<0.01, ***<0.001 as determined by One-Way ANOVA. […]
# [5] = biological target: MSK1/RPS6KA5 (Homo sapiens, UniProt O75582); assay: kinase inhibition assay panel; type: biochemical
# Method: (§3) Base Reaction buffer; 20 mM Hepes (pH 7.5), 10 mM MgCl2, 1 mM EGTA, 0.02% Brij35, 0.02 mg/ml BSA, 0.1 mM Na3VO4, 2 mM DTT, 1% DMSO
# (§4) It should be noted that required cofactors are added individually to each kinase reaction.
# (§5) • 1. Prepare indicated substrate in freshly prepared Base Reaction Buffer as described above • 2. Deliver any required cofactors to the substrate solution • 3. Deliver indicated kinase into the substrate solution and gently mix • 4. Deliver compounds in DMSO into the kinase reaction mixture • 5. Deliver ^33P-ATP (specific activity 0.01 μCi/μl final) into the reaction mixture to initiate the reaction • 6. Incubate kinase reaction for 120 min. at room temperature • 7. Reactions are spotted onto P81 ion exchange paper (Whatman #3698-915) • 8. Wash filters extensively in 0.75% Phosphoric acid Kinase Information: • CK1δ—Genbank Accession # NP_620693 • Recombinant human full-length construct. GST-tagged, expressed in insect cells. • Final concentration in assay=4 nM • Substrate: CK1tide • Substrate sequence: [KRRRAL[pS]VASLPGL] • Final substrate concentration in assay=20 μM • It should be noted that no additional cofactors are added to the reaction mixture.
# [6] = biological target: c-SRC (Homo sapiens, UniProt P12931); assay: kinase inhibition assay panel; type: biochemical
# Method: as §3, §4, §5
# [7] = biological target: HGK/MAP4K4 (Homo sapiens, UniProt O95819); assay: kinase inhibition assay panel; type: biochemical
# Method: as §3, §4, §5
# [8] = biological target: PKCa (Homo sapiens, UniProt P17252); assay: kinase inhibition assay panel; type: biochemical
# Method: as §3, §4, §5
# [9] = biological target: ROCK1 (Homo sapiens, UniProt Q13464); assay: kinase inhibition assay panel; type: biochemical
# Method: as §3, §4, §5
# [10] = biological target: GSK3b (Homo sapiens, UniProt P49841); assay: kinase inhibition assay panel; type: biochemical
# Sequence of GSK3b (P49841 whole entry, species assumed): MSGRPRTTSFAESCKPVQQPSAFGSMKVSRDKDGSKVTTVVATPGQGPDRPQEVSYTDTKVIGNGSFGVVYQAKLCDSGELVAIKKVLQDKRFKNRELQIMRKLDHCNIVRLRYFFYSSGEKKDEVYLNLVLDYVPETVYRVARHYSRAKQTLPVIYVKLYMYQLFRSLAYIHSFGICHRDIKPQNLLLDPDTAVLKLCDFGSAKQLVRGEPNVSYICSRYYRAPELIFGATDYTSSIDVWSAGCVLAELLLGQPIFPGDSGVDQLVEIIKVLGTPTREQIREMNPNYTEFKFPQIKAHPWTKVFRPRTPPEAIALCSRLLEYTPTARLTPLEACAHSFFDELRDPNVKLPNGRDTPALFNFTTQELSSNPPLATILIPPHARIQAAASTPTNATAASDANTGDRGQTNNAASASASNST
# Method: as §3, §4, §5
# [11] = biological target: PKCb2 (Homo sapiens, UniProt P05771); assay: kinase inhibition assay panel; type: biochemical
# Method: as §3, §4, §5
# [12] = biological target: KDR/VEGFR2 (Homo sapiens, UniProt P35968); assay: kinase inhibition assay panel; type: biochemical
# Sequence of KDR/VEGFR2 (P35968 20-1356): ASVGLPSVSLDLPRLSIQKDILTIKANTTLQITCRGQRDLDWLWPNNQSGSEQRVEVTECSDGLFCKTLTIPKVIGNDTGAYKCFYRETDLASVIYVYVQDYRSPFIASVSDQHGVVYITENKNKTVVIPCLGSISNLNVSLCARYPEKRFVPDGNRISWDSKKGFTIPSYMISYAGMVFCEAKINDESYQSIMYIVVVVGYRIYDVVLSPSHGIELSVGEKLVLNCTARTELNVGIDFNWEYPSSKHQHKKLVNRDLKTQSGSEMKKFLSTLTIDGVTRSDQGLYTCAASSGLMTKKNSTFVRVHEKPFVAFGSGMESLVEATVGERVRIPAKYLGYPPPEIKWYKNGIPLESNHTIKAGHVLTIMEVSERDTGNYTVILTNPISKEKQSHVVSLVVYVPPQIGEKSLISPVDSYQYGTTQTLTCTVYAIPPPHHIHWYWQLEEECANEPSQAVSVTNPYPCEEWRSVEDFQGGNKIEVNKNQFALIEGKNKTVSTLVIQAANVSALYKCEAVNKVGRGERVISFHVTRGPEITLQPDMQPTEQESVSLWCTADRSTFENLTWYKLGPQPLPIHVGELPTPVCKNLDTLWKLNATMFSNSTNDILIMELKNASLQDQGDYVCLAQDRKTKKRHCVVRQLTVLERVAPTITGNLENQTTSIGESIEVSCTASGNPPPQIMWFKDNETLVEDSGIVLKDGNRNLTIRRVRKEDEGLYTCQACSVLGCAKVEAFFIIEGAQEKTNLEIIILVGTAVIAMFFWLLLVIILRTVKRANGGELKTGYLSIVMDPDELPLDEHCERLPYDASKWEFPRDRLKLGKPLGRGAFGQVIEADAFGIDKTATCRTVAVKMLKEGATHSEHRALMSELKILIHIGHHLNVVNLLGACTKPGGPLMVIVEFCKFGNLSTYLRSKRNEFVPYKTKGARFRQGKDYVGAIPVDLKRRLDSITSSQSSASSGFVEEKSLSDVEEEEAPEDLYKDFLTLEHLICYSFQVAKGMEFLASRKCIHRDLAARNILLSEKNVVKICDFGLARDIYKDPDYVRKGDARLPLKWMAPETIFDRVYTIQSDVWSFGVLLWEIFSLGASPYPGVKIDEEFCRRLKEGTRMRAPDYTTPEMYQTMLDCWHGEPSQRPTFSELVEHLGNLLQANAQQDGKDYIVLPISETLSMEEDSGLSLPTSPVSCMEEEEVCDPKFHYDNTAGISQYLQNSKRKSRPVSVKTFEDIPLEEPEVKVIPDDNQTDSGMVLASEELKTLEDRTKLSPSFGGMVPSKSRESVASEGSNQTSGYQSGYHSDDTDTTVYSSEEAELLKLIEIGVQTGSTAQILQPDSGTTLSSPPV
# Method: as §3, §4, §5
# [13] = biological target: T1, PDK1/PDPK1 (Homo sapiens, UniProt O15530); assay: kinase inhibition assay panel; type: biochemical
# T1 sequence (O15530 1-556): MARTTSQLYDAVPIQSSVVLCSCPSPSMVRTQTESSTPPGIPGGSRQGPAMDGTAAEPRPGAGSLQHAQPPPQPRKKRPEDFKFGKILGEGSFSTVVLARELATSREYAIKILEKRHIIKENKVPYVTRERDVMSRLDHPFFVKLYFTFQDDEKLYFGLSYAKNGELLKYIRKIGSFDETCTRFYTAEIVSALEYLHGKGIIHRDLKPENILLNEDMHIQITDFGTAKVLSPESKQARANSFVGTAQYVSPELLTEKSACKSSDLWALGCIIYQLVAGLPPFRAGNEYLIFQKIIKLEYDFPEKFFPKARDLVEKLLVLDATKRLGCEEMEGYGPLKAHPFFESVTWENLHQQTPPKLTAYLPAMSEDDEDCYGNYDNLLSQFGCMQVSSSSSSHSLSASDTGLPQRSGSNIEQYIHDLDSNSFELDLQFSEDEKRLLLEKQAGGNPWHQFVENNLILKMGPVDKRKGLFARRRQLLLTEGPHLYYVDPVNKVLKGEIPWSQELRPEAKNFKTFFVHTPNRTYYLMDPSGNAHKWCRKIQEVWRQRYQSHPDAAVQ
# Method: as §3, §4, §5
# [14] = biological target: CDK5/p25 (Homo sapiens, UniProt Q00535); assay: kinase inhibition assay panel; type: biochemical
# Sequence of CDK5/p25 (Q00535 whole entry, species assumed): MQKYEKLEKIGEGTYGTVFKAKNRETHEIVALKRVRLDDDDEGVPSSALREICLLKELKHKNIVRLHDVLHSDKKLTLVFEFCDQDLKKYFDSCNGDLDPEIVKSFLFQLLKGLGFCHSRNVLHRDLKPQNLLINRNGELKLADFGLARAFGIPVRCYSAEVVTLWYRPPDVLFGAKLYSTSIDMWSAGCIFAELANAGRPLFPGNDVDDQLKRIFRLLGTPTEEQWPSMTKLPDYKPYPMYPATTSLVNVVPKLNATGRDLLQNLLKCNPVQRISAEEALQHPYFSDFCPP
# Sequence of CDK5/p25 (Q15078 99-307 partner limits assumed, species assumed): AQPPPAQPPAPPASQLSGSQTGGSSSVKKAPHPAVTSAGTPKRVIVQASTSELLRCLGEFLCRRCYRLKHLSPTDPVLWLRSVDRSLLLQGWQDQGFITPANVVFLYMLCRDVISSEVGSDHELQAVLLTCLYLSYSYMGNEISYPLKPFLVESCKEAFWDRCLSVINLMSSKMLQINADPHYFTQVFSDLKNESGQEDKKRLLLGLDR
# Method: as §3, §4, §5
# [15] = biological target: PIM3 (Homo sapiens, UniProt Q86V86); assay: kinase inhibition assay panel; type: biochemical
# Method: as §3, §4, §5
# [16] = biological target: ABL2/ARG (Homo sapiens, UniProt P42684); assay: kinase inhibition assay panel; type: biochemical
# Method: as §3, §4, §5
# [17] = biological target: LCK (Homo sapiens, UniProt P06239); assay: kinase inhibition assay panel; type: biochemical
# Method: as §3, §4, §5
# [18] = biological target: CK1g2 (Homo sapiens, UniProt P78368); assay: kinase inhibition assay panel; type: biochemical
# Sequence of CK1g2 (P78368 whole entry, species assumed): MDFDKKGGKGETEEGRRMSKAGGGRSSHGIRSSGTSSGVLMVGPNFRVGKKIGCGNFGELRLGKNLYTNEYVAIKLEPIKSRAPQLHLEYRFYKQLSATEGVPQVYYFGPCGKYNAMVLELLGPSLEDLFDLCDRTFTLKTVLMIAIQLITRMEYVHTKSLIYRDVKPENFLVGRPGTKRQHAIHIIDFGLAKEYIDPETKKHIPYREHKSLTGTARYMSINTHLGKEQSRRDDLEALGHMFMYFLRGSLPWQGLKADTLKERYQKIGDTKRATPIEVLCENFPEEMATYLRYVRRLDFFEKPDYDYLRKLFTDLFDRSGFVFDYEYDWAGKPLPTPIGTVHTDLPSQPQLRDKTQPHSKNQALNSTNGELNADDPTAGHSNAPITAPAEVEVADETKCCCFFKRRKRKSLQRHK
# [19] = biological target: CLK2 (Homo sapiens, UniProt P49760); assay: kinase inhibition assay panel; type: biochemical
# Sequence of CLK2 (P49760 whole entry, species assumed): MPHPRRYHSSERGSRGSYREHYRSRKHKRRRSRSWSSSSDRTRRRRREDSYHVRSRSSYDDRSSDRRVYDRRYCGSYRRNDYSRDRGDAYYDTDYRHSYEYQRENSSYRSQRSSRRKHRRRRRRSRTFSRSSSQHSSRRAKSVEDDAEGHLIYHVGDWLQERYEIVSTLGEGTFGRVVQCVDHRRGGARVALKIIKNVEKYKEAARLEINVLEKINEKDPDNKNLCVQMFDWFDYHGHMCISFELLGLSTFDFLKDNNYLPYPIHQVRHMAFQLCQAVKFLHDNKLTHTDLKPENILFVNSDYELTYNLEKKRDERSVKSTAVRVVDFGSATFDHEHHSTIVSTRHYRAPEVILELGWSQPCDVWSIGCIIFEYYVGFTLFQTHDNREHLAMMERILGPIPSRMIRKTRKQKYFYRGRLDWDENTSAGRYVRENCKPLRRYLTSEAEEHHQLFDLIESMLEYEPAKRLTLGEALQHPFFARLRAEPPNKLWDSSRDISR
# [20] = biological target: CK1g1 (Homo sapiens, UniProt Q9HCP0); assay: kinase inhibition assay panel; type: biochemical
# [21] = biological target: FGFR1 (Homo sapiens, UniProt P11362); assay: kinase inhibition assay panel; type: biochemical
# Sequence of FGFR1 (P11362 22-822, species assumed): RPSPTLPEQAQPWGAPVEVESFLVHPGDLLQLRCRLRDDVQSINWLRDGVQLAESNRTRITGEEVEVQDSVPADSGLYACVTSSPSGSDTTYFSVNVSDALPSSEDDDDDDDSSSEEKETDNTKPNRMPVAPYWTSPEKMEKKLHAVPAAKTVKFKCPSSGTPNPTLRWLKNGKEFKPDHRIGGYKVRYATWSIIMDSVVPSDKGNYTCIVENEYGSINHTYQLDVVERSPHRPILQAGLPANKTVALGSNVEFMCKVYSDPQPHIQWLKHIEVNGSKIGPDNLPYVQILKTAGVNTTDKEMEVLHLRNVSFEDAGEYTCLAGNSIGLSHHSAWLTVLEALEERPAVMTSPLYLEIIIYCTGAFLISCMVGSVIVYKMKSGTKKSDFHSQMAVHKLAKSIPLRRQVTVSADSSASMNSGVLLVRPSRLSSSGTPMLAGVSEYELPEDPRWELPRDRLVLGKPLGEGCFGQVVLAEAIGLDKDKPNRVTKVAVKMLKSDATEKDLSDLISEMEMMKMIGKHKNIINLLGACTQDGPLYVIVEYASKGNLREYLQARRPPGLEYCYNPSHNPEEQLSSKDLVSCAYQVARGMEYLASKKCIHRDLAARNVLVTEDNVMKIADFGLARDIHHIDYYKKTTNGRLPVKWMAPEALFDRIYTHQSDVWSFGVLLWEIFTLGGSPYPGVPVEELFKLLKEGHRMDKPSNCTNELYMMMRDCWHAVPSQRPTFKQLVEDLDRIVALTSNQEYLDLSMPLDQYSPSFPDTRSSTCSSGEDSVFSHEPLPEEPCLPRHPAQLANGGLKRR
# [22] = biological target: T2, CK1δ (Homo sapiens, UniProt P48730); assay: CK1δ inhibition assay (33P-ATP, CK1tide substrate); type: biochemical; conditions: range of kinase inhibition assays
# T2 construct: Recombinant human full-length construct; GST; host or cells: insect cells
# T2 sequence (P48730 1-409 isoform P48730-2): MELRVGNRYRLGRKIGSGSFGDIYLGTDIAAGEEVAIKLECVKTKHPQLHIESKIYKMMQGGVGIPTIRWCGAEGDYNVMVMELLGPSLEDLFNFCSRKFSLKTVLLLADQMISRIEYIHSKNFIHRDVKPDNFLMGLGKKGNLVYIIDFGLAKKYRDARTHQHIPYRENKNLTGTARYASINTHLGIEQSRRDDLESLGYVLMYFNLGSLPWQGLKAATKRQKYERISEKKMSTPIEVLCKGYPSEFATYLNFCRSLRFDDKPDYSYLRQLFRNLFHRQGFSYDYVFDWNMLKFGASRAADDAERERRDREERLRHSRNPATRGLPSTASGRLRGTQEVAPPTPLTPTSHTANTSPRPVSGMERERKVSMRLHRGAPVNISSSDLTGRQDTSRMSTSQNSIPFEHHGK
# Method: The compounds of the invention may be tested for inhibition of casein kinase 1 delta (CK1δ) in accordance with the assay protocols described in US 2010/0152157, EP 1,636,375 or Hanger et al (2007) J. Biol. Chem. 282, 23645-23654. In particular, the assay was conducted in accordance with the following protocol:
# as §3, §4, §5
structure (smiles),measurement,setting,value
COc1cc(OC)c(C=C2C(O)=Nc3ccccc32)c(OC)c1 [IC261],levels of Tau phosphorylation at key pathogenic sites,[1],reduced
"Nc1nccc(-c2c(-c3ccc(F)cc3)ncn2C2CCCCC2)n1 [PF670462, reference compound]",detectable levels of total Tau,[2],marginally less total Tau
same,detectable level of pT231 in Tau protein,[3],reduced the detectable level of pT231
same,effect on the cell viability of SH-SY5Y-TMHT cells,[4],significant protective effect
"NC(=O)c1c(N)n(C(=O)c2ccc(F)cc2)c2ccccc12 [Compound 999, 2-amino-1-[(4-fluorophenyl)carbonyl]-1H-indole-3-carboxamide]",inhibition of MSK1/RPS6KA5,[5],lower than 40%
same,inhibition of c-SRC,[6],lower than 40%
same,inhibition of HGK/MAP4K4,[7],lower than 40%
same,inhibition of PKCa,[8],lower than 40%
same,inhibition of ROCK1,[9],lower than 40%
same,inhibition of GSK3b,[10],lower than 40%
same,inhibition of PKCb2,[11],lower than 40%
same,inhibition of KDR/VEGFR2,[12],lower than 40%
same,inhibition of PDK1/PDPK1,[13],lower than 40%
same,inhibition of CDK5/p25,[14],lower than 40%
same,inhibition of PIM3,[15],lower than 40%
same,inhibition of ABL2/ARG,[16],lower than 40%
same,inhibition of LCK,[17],lower than 40%
same,inhibition of CK1g2,[18],lower than 40%
same,inhibition of CLK2,[19],lower than 40%
same,inhibition of CK1g1,[20],lower than 40%
same,inhibition of FGFR1,[21],lower than 40%
same,selectivity for CK1δ when compared with other kinases,[22],significant and selective inhibition for CK1δ
